Here are results for 49 compounds from patent US4954502A, “1-indolyalkyl-4-(substituted-pyridinyl)piperazines” (Bristol-Myers Squibb Company, priority 1989, dated 1990).

Broadly, the IC50 is the concentration needed to halve the response being measured. Read a high IC50 as weaker potency in that assay.

Counter-ions that a name gives are not always drawn.

This test deals with T1, serotonin uptake (Rattus norvegicus, UniProt P31652).
T1 construct: from tissue
T1 sequence (P31652 whole entry): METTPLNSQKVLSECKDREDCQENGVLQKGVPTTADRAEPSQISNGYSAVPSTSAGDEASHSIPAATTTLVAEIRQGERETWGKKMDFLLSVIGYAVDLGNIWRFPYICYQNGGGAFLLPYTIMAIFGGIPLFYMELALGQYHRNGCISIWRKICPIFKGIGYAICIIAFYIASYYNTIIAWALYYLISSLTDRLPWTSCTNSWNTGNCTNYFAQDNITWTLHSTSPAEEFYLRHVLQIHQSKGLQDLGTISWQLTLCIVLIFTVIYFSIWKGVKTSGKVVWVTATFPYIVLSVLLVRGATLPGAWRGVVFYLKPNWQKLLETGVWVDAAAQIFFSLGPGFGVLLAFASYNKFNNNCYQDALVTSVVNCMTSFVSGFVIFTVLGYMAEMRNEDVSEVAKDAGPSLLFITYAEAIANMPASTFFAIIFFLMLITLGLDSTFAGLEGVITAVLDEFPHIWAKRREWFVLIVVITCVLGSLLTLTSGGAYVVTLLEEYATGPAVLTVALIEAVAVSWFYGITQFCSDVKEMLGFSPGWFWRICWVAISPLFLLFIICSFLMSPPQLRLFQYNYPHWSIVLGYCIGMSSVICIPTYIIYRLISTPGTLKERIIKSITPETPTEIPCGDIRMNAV
In words: Inhibition of serotonin uptake (in vitro): inhibition of synaptosomal reuptake of tritiated serotonin. The class given is biochemical. As to the method:
Determination of endogenous monoaminergic re-uptake inhibition values both for serotonin and norepinephrine was accomplished using test methods described by P. Skolnick, et al.. Br. J. Pharmacology (1985), 86, pp. 637-644; with only minor modifications. In vitro IC50 (nM) test values were determined for representative compounds of Formula I based on their inhibition of synaptosomal reuptake of tritiated serotonin. Test data IC50 values lower than 500 nM are considered to reflect activity as an inhibitor of serotonin reuptake. Compounds with Ic50 values lower than 1OO nM comprise preferred compounds.
`COc1cccnc1N1CCN(CCc2cn(C)c3ccccc23)CC1` [Example 47]: the IC50 came to 24 nM. The same measure for `Clc1ccc2[nH]cc(CCN3CCN(c4cccc(Cl)n4)CC3)c2c1` [Example 57]: 166 nM. In turn, `Clc1cccnc1N1CCN(CCc2c[nH]c3ccccc23)CC1` [Example 42] gave an IC50 of 520 nM.

`COc1ccc2[nH]cc(CCN3CCN(c4cccc(Cl)n4)CC3)c2c1` [Example 40] returned a half-inhibitory concentration (IC50) of 177 nM.

In turn, `Fc1ccc2[nH]cc(CCN3CCN(c4cccc(C(F)(F)F)n4)CC3)c2c1` [Example 43] yielded an IC50 of 73 nM. The figure for `COc1cccnc1N1CCN(CCCc2cn(C)c3ccccc23)CC1` [Example 50] is 3.7 nM; for `COc1cccnc1N1C[C@H]2C[C@@H]1CN2CCCc1c[nH]c2ccccc12` [Example 35] it is 152 nM; for `Clc1cccc(N2C[C@@H]3C[C@H]2CN3CCc2c[nH]c3ccccc23)n1` [Example 28] it is 77 nM. The same measure for `FC(F)(F)c1cccc(N2CCN(CCCc3c[nH]c4ccccc34)CC2)n1` [Example 30]: 192 nM; for `Cn1cc(CCN2CCN(c3cccc(Cl)n3)CC2)c2ccccc21` [Example 55]: 126 nM; for `COc1cccnc1N1CCN(CCc2c[nH]c3ccc(Cl)cc23)CC1` [Example 56]: under 1 nM. Compound `Fc1ccc2[nH]cc(C3=CCC(N4CCN(c5cccc(Cl)n5)CC4)CC3)c2c1` (stereo not shown) [Example 70] gave an IC50 of 141 nM. The same measure for `COc1ccc2[nH]cc(CCN3CCN(c4cccc(C(F)(F)F)n4)CC3)c2c1` [Example 44]: 560 nM. The figure for `COc1cccnc1N1CCN(CCCc2c[nH]c3ccccc23)CC1` [Example 20, 1-[3-(1H-indol-3-yl)-propyl]-4-[3-methoxy-2-pyridinyl]piperazine dihydrochloride hydrate] is 1.1 nM; for `COc1cccnc1N1CCN(CCc2c[nH]c3ccccc23)C(C)C1` (stereo not shown) [Example 25] it is 8.6 nM; for `COc1cccnc1N1CCN(CCc2c[nH]c3ccccc23)CC1` [Example 18, 1-[2-(1H-indol-3-yl)-ethyl]-4-[3-methoxy-2-pyridinyl]-piperazine] it is 13 nM.

`COc1ccc(Cl)nc1N1CCN(CCCc2c[nH]c3ccccc23)CC1` [Example 71]: 4.9 nM corresponded to half-maximal inhibition (IC50). For the compound `COc1cccnc1N1CCN(CCCCc2c[nH]c3ccccc23)CC1` [Example 21, 1-[4-(1H-indol-3-yl)butyl]-4-(3-methoxy-2-pyridine-1)piperazine dihydrochloride], half-maximal inhibition (IC50) required 58 nM.

`COc1ccc2[nH]cc(CCN3CCN(c4ncccc4OC)CC3)c2c1` [Example 38]: inhibition was half-maximal at 11 nM (IC50). Consider `Clc1cccc(N2C[C@H]3C[C@@H]2CN3CCc2c[nH]c3ccccc23)n1` [Example 29], for which the IC50 came to 106 nM. The same measure for `COc1cccnc1N1CCN(C(C)CCc2c[nH]c3ccccc23)CC1` (stereo not shown) [Example 68]: 36.7 nM; for `COc1cc2[nH]cc(CCN3CCN(c4cccc(Cl)n4)CC3)c2cc1OC` [Example 48]: 127 nM; for `Clc1cccc(N2CCN(C3CC=C(c4c[nH]c5ccccc45)CC3)CC2)n1` (stereo not shown) [Example 45]: 100 nM. `Clc1ccc(N2CCN(CCc3c[nH]c4ccccc34)CC2)nc1` [Example 54] yielded an IC50 of 30 nM. The same measure for `CC1CN(c2cccc(Cl)n2)CCN1CCCc1c[nH]c2ccccc12` (stereo not shown) [Example 72]: 18.7 nM; for `Clc1cccc(N2CCN(CCCc3c[nH]c4ccccc34)CC2)n1` [Example 19, 1-(6-Chloro-2-pyridinyl)-4-[3-(1H-indol-3-yl)propyl]piperazine hydrochloride]: 98 nM. `COc1cccnc1N1C[C@@H]2C[C@H]1CN2CCc1c[nH]c2ccccc12` [Example 27] displayed an IC50 of 12.5 nM. The figure for `Cn1cc(CCCN2CCN(c3cccc(Cl)n3)CC2)c2ccccc21` [Example 51] is 86 nM; for `COc1ccc2[nH]cc(C3=CCC(N4CCN(c5cccc(Cl)n5)CC4)CC3)c2c1` (stereo not shown) [Example 23, 3-[4-[4-(6-Chloro-2-pvridinyl)-1-piperazinyl]-1cyclohexen-1-yl]-5-methoxy-1H-indole] it is 99 nM.

Take `FC(F)(F)c1cccc(N2CCN(CCc3c[nH]c4ccc(Cl)cc34)CC2)n1` [Example 63]: half-maximal inhibition (IC50) was put at 437 nM. Regarding `FC(F)(F)c1cccc(N2CCN(CCCCc3c[nH]c4ccccc34)CC2)n1` [Example 32], the IC50 was 259 nM.

`COc1cc2[nH]cc(CCN3CCN(c4cccc(C(F)(F)F)n4)CC3)c2cc1OC` [Example 69] came in with an IC50 of 479 nM. The figure for `COc1cccnc1N1C[C@H]2C[C@@H]1CN2CCc1c[nH]c2ccccc12` [Example 26] is 106 nM. For the compound `FC(F)(F)c1cccc(N2CCN(CCc3c[nH]c4ccccc34)CC2)n1` [Example 15, 1-[2-(1H-indol-3-yl)-ethyl]-4-6-trifluoromethyl-2-pyridinyl]piperazine hydrochloride], the IC50 is 73 nM. The figure for `CC(Cc1c[nH]c2ccccc12)N1CCN(c2cccc(Cl)n2)CC1` (stereo not shown) [Example 36, 3-[2-[4-(6-Chloro-2-pyridyl)-1-piperazinyl]propyl]-indole] is 75 nM. As to `COc1cccnc1N1CCN(CCc2c[nH]c3ccccc23)C(C)C1` (stereo not shown) [Example 64], the IC50 was under 1 nM.

On to `COc1cccnc1N1CCN(CCc2c[nH]c3ccc(F)cc23)CC1` [Example 39], for which the IC50 turned out to be 0.2 nM. For `FC(F)(F)c1cccnc1N1CCN(CCc2c[nH]c3ccccc23)CC1` [Example 17, 1-[2-(1H-indol-3-yl)-ethyl]-4-[3-trifluoromethyl-2-pyridinyl]piperazine hydrochloride], 37 nM corresponded to half-maximal inhibition (IC50). The figure for `Clc1cccc(N2CCN(CCc3c[nH]c4ccccc34)CC2)n1` [Example 14, 4-[6-Chloro-2-pyridinyl]-1-[2-(1H-indol-3-yl)-ethyl]piperazine hydrochloride] is 74 nM; for `FC(F)(F)c1ccnc(N2CCN(CCCc3c[nH]c4ccccc34)CC2)c1` [Example 33] it is 105 nM; for `FC(F)(F)c1ccnc(N2CCN(CCc3c[nH]c4ccccc34)CC2)c1` [Example 37] it is 386 nM. Compound `CC(CCc1c[nH]c2ccccc12)N1CCN(c2cccc(Cl)n2)CC1` (stereo not shown) [Example 67] gave an IC50 of 142 nM. The same measure for `COc1cccc(N2CCN(CCc3c[nH]c4ccccc34)CC2)n1` [Example 16, 1-[2-(1H-indol-3-yl)-ethyl]-4[6-methoxy-2-pyridinyl-piperazine hydrate]: 88 nM; for `Clc1cccc(N2CCN(CCCCc3c[nH]c4ccccc34)CC2)n1` [Example 31]: 27 nM.

The compound `COc1ccc2c(CCN3CCN(c4cccc(Cl)n4)CC3)c[nH]c2c1` [Example 65] came in with an IC50 of 134 nM. `COc1ccc2c(CCN3CCN(c4ncccc4OC)CC3)c[nH]c2c1` [Example 66] yielded an IC50 of 35.9 nM. In turn, `NC(=O)c1ccc2[nH]cc(C3=CCC(N4CCN(c5cccc(Cl)n5)CC4)CC3)c2c1` (stereo not shown) [Example 46] had an IC50 of 27 nM. The figure for `COc1cccnc1N1C[C@@H]2C[C@H]1CN2CCCc1c[nH]c2ccccc12` [Example 34] is 5.6 nM; for `Fc1ccc2[nH]cc(CCN3CCN(c4cccc(Cl)n4)CC3)c2c1` [Example 41] it is 2.8 nM.
